Reference: the supplement of paper PMC10307832

How the values were obtained:
Assay in all cases: relative viability (nuclei count vs DMSO), 5 days (fraction); higher = more cells survive
[1] = compound: CCN1CCC(CC1)N2C=C(N=N2)CNC3=CC4=C(C(=CN=C4C(=C3)Cl)C#N)NC5=CC(=C(C=C5)F)Cl [KIN001-266] + Cc1cc(Nc2cc(N3CCN(C)CC3)nc(Sc3ccc(NC(=O)C4CC4)cc3)n2)n[nH]1 [Tozasertib] (partner 0.1 µM)
Method in brief: (§1)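 Relative viability divides the nuclei count in treated wells by that in vehicle wells. Lung cancer cell lines were seeded in 1536-well plates, dosed by pin tool the next day, and fixed and stained after 5 days in one step with final 0.05% Triton X-100, 1% formaldehyde and 1 ug/ml Hoechst. Dosing was a single drug or a fixed anchor-drug dose plus five library-drug doses (not always all listed) in √10 steps, and values are medians of duplicate plates imaged at 4×.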

[2] = compound: CCN1CCC(CC1)N2C=C(N=N2)CNC3=CC4=C(C(=CN=C4C(=C3)Cl)C#N)NC5=CC(=C(C=C5)F)Cl [KIN001-266] + N=C(N)NC(=N)NCCc1ccccc1 [Phenformin] (partner 250 µM)
Method in brief: as §1

[3] = compound: CCN1CCC(CC1)N2C=C(N=N2)CNC3=CC4=C(C(=CN=C4C(=C3)Cl)C#N)NC5=CC(=C(C=C5)F)Cl [KIN001-266] + CC1(C)CCC(c2ccc(Cl)cc2)=C(CN2CCN(c3ccc(C(=O)NS(=O)(=O)c4ccc(N[C@H](CCN5CCOCC5)CSc5ccccc5)c(S(=O)(=O)C(F)(F)F)c4)cc3)CC2)C1 [Navitoclax] (partner 0.5 µM)
Method in brief: as §1

[4] = compound: CCN1CCC(CC1)N2C=C(N=N2)CNC3=CC4=C(C(=CN=C4C(=C3)Cl)C#N)NC5=CC(=C(C=C5)F)Cl [KIN001-266]
Method in brief: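 Acceptance criteria were a control CV below 25% and at least one doubling per plate. Lung cancer cell lines in 1536-well plates got five library-drug doses (not always all listed) √10 apart by pinning and were left 5 days with no medium change. Viability divides treated-well nuclei by vehicle-well nuclei and is the median across plates. Nuclei were counted by MetaXpress from 4× Hoechst images.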

Row | Cell Line | relative viability ([1]; first compound 0.08 µM) | relative viability ([1]; first compound 0.253 µM) | relative viability ([1]; first compound 0.8 µM) | relative viability ([1]; first compound 2.53 µM) | relative viability ([1]; first compound 8 µM) | relative viability ([2]; first compound 0.08 µM) | relative viability ([2]; first compound 0.253 µM) | relative viability ([2]; first compound 0.8 µM) | relative viability ([2]; first compound 2.53 µM) | relative viability ([2]; first compound 8 µM) | relative viability ([3]; first compound 0.08 µM) | relative viability ([3]; first compound 0.253 µM) | relative viability ([3]; first compound 0.8 µM) | relative viability ([3]; first compound 2.53 µM) | relative viability ([3]; first compound 8 µM) | relative viability ([4]; 0.08 µM) | relative viability ([4]; 0.253 µM) | relative viability ([4]; 0.8 µM) | relative viability ([4]; 2.53 µM) | relative viability ([4]; 8 µM)
1 | 201T | 0.915 | 0.915 | 0.915 | 0.919 | 0.856 | 0.449 | 0.45 | 0.386 | 0.457 | 0.434 | 1.18 | 1.23 | 1.23 | 1.19 | 1.21 | 1.02 | 1 | 0.959 | 0.995 | 0.956
2 | A549 |  |  |  |  |  | 0.22 | 0.178 | 0.131 | 0.14 | 0.14 | 1.26 | 1.17 | 1.27 | 1.3 | 1.2 | 1.02 | 0.974 | 1.03 | 0.891 | 0.939
3 | A-427 | 0.24 | 0.21 | 0.178 | 0.186 | 0.181 | 0.357 | 0.307 | 0.289 | 0.275 | 0.247 | 0.973 | 0.991 | 0.978 | 0.983 | 0.953 | 1.04 | 1.06 | 1.05 | 0.928 | 0.953
4 | ABC-1 | 0.156 | 0.227 | 0.199 | 0.166 | 0.204 | 0.255 | 0.241 | 0.283 | 0.251 | 0.312 |  |  |  |  |  | 1.03 | 1.11 | 1.12 | 0.959 | 0.774
5 | BEN | 0.479 | 0.534 | 0.491 | 0.484 | 0.506 | 0.262 | 0.262 | 0.275 | 0.259 | 0.231 | 0.064 | 0.0577 | 0.0627 | 0.0713 | 0.0844 | 0.991 | 0.931 | 1.06 | 0.864 | 0.996
6 | CAL-12T | 0.345 | 0.3 | 0.291 | 0.312 | 0.255 | 0.571 | 0.545 | 0.515 | 0.568 | 0.534 | 1.47 | 1.31 | 1.17 | 1.33 | 1.15 | 1.07 | 0.965 | 0.956 | 1.09 | 0.994
7 | COR-L23 | 0.19 | 0.182 | 0.206 | 0.164 | 0.151 | 0.439 | 0.452 | 0.452 | 0.455 | 0.368 | 0.99 | 1.03 | 1.01 | 1.01 | 0.54 | 1 | 0.984 | 1.02 | 0.983 | 0.828
8 | COR-L 105 | 0.388 | 0.322 | 0.381 | 0.342 | 0.296 | 0.48 | 0.641 | 0.534 | 0.641 | 0.431 | 0.725 | 0.681 | 0.805 | 0.946 | 0.817 | 0.942 | 0.967 | 0.963 | 1 | 0.902
9 | Calu-6 |  |  |  |  |  |  |  |  |  |  | 0.868 | 0.877 | 0.859 | 0.64 | 0.437 | 0.995 | 1.04 | 1.02 | 0.969 | 0.798
10 | ChaGo-K-1 | 0.245 | 0.218 | 0.213 | 0.207 | 0.198 | 0.508 | 0.505 | 0.473 | 0.48 | 0.454 | 1.27 | 1.12 |  | 1.1 | 1.14 | 1.04 | 1.03 | 0.92 | 0.929 | 0.886
11 | EBC-1 |  |  |  |  |  |  |  |  |  |  | 0.398 | 0.413 | 0.409 | 0.359 | 0.217 | 1.04 | 1.02 | 0.954 | 0.988 | 0.704
12 | EKVX | 0.319 | 0.376 | 0.374 | 0.392 | 0.409 | 0.234 | 0.237 | 0.2 | 0.243 | 0.225 | 1.08 | 0.822 | 0.925 | 0.975 | 0.876 | 0.989 | 1 | 0.841 | 0.868 | 0.941
13 | EMC-BAC-2 | 0.307 | 0.316 | 0.292 | 0.29 | 0.281 | 0.56 | 0.516 | 0.482 | 0.54 | 0.475 | 1.15 | 1.1 | 1.08 | 1.16 | 1.22 | 1.07 | 1.21 | 0.98 | 1.07 | 0.989
14 | EPLC-272H | 0.258 | 0.377 | 0.383 | 0.244 | 0.208 | 0.334 | 0.317 | 0.274 | 0.234 | 0.239 | 1.16 | 1.42 | 0.966 | 1.11 | 0.763 | 1.08 | 1 | 0.915 | 0.893 | 0.686
15 | H3255 | 0.699 | 0.601 | 0.502 | 0.499 | 0.512 | 0.356 | 0.373 | 0.353 | 0.353 | 0.345 | 0.689 | 0.566 | 0.494 | 0.482 | 0.615 | 1.01 | 1.06 | 0.96 | 0.96 | 0.78
16 | HARA | 0.124 | 0.13 | 0.102 | 0.0995 | 0.0873 | 0.455 | 0.483 | 0.433 | 0.457 | 0.295 | 1.17 | 1.03 | 1.14 | 1.11 | 1.03 | 0.959 | 1.04 | 0.937 | 1.06 | 0.747
17 | HCC-15 | 0.443 | 0.358 | 0.25 | 0.24 | 0.19 | 0.48 | 0.472 | 0.421 | 0.43 | 0.34 | 0.722 | 0.676 | 0.624 | 0.553 | 0.411 | 1.02 | 1.03 | 0.875 | 0.868 | 0.689
